Data on 22 compounds can be found in US10370366B2 (Flatley Discovery Lab, LLC, priority 2013, dated 2019).

Structures are written as SMILES.

The assay has as its target T1, human F508del CFTR (Homo sapiens, UniProt P13569, DEL508-508).
T1 construct: expressed in transfected cells; host or cells: Fisher Rat Thyroid (FRT) cells
The assay is described as follows: CFTR-YFP High Throughput Assay. The class given is cell-based. Particulars: FRT cells expressing human F508del CFTR and YFP; for Emax: EMax normalized to the positive control, read-out: % Efficacy. In outline:
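FRT cells stably co-expressing human F508del CFTR and halide-sensitive YFP-H148Q/I152L; for correction, compound (2 nM-40 μM) incubated 24-26 h at 37° C, washed, then stimulated 60-120 min at RT with 20 μM forskolin plus 30 μM potentiator P3. Iodide-induced YFP quench (Ex 500/Em 540 nm) recorded; quench rates least-squares fitted.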

T1 sequence (P13569 with tags, fused parts or gaps DEL508-508): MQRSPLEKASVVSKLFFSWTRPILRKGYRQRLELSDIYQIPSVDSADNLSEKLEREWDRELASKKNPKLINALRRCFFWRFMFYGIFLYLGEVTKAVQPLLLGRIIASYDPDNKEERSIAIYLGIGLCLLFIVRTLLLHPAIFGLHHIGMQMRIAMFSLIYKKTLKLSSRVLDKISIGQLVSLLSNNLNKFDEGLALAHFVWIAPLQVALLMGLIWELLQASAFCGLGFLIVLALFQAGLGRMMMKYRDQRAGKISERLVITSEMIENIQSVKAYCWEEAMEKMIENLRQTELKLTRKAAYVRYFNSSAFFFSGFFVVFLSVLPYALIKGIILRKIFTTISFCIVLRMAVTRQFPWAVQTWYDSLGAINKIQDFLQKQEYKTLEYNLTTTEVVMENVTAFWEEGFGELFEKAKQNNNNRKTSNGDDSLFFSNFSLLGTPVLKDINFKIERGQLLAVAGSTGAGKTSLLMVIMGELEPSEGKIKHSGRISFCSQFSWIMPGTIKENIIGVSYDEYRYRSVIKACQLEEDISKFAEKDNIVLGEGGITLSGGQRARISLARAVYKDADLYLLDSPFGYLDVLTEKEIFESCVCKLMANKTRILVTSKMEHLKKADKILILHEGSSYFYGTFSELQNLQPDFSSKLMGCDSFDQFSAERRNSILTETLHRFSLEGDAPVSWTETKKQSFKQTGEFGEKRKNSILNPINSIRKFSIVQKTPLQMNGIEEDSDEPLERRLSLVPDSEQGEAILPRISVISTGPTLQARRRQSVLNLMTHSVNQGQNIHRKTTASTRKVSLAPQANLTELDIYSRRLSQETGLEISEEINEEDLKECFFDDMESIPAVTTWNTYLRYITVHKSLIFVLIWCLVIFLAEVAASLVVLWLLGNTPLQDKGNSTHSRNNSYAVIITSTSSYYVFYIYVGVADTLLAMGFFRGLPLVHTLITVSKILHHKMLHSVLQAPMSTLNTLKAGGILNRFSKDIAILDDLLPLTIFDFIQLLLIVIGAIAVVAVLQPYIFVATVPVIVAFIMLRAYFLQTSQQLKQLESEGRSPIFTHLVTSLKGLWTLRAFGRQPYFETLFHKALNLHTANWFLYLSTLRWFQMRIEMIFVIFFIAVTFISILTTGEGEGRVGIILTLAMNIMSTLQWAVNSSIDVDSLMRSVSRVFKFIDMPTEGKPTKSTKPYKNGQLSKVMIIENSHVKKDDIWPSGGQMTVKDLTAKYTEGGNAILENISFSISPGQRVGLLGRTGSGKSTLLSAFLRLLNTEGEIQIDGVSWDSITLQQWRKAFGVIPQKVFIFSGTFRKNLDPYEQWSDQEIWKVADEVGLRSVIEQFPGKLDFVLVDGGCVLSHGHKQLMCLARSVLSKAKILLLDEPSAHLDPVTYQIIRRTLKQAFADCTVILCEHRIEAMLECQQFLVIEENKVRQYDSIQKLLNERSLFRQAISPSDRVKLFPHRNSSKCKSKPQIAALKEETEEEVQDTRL

The EC50 is the midpoint of the concentration-response curve. Regarding `COc1ccc2c(-c3cccc(C#N)c3)nn(CC(=O)N(C)c3ccc4nc(C)oc4c3)c(=O)c2c1` [Example 87, 2-(4-(3-cyanophenyl)-7-methoxy-1-oxophthalazin-2(1H)-yl)-N-methyl-N-(2-methylbenzo[d]oxazol-6-yl)acetamide], the Emax is more than 80% and the EC50 is less than 10 µM.

As to `CCN(C(=O)Cn1nc(C(=O)Nc2ccccn2)c2ccccc2c1=O)c1ccc2c(c1)OC(F)(F)O2` [Example 126, 3-(2-((2,2-difluorobenzo[d][1,3]dioxol-5-yl)(ethyl)amino)-2-oxoethyl)-4-oxo-N-(pyridin-2-yl)-3,4-dihydrophthalazine-1-carboxamide], the Emax lay in the range of 30 to 80% and the EC50 is less than 10 µM.

`CCN(C(=O)c1nn(CCOC)c(=O)c2c1c1ccccc1n2C)c1ccccc1` [Example 227, N-ethyl-3-(2-methoxyethyl)-5-methyl-4-oxo-N-phenyl-4,5-dihydro-3H-pyridazino[4,5-b]indole-1-carboxamide]: the Emax was 30 to 80% and the EC50 is less than 10 µM.

Consider `CCN(C(=O)c1nn(CC(C)(C)C)c(=O)c2c1c1ccccc1n2C)c1ccccc1` [Example 217, N-ethyl-5-methyl-3-neopentyl-4-oxo-N-phenyl-4,5-dihydro-3H-pyridazino[4,5-b]indole-1-carboxamide], for which the Emax was in the range of 10 to 30% and the EC50 is more than 20 µM.

As for `CCN(C(=O)c1nn(-c2ccc(C)cc2)c(=O)c2c1c1cc(OC)ccc1n2C)c1ccccc1` [Example 187, N-ethyl-8-methoxy-5-methyl-4-oxo-N-phenyl-3-(p-tolyl)-4,5-dihydro-3H-pyridazino[4,5-b]indole-1-carboxamide], the Emax was 30 to 80% and the EC50 was more than 20 µM.

`CCN(C(=O)Cn1ncc2c(c1=O)c1ccccc1n2Cc1ccc(OC)cc1)c1ccc2c(c1)OC(F)(F)O2` [Example 136, N-(2,2-difluorobenzo[d][1,3]dioxol-5-yl)-N-ethyl-2-(5-(4-methoxybenzyl)-1-oxo-1H-pyridazino[4,5-b]indol-2(5H)-yl)acetamide]: the Emax was 30 to 80% and the concentration giving a half-maximal response (EC50) is less than 10 µM.

As for `CCN(C(=O)Cn1ncc2c(c1=O)c1ccccc1n2Cc1ccccc1)c1ccc2c(c1)OC(F)(F)O2` [Example 133, 2-(5-benzyl-1-oxo-1H-pyridazino[4,5-b]indol-2(5H)-yl)-N-(2,2-difluorobenzo[d][1,3]dioxol-5-yl)-N-ethylacetamide], the Emax was in the range of 30 to 80%.

Take `CCN(C(=O)Cn1ncc2c(c1=O)c1ccccc1n2CCC(=O)OC)c1ccc2c(c1)OC(F)(F)O2` [Example 134, methyl 3-(2-(2-((2,2-difluorobenzo[d][1,3]dioxol-5-yl)(ethyl)amino)-2-oxoethyl)-1-oxo-1H-pyridazino[4,5-b]indol-5(2H)-yl)propanoate]: the Emax was in the range of 30 to 80%.

As for `CCc1ccc(N(CC)C(=O)Cn2nc(-c3cccc(C#N)c3)c3ccccc3c2=O)cc1` [Example 17, 2-(4-(3-cyanophenyl)-1-oxophthalazin-2(1H)-yl)-N-ethyl-N-(4-ethylphenyl)acetamide], the Emax lay within 30 to 80% and the EC50 is less than 10 µM.

For `CCOC(=O)c1ccc2c(-c3cccc(F)c3)nn(CC(=O)N(C)c3ccc4nc(C)oc4c3)c(=O)c2c1` [Example 67, ethyl 1-(3-fluorophenyl)-3-(2-(methyl(2-methyl-benzo[d]oxazol-6-yl)amino)-2-oxoethyl)-4-oxo-3,4-dihydrophthalazine-6-carboxylate], the Emax fell in the range of 30 to 80% and the EC50 is less than 10 µM.

On to `CCN(C(=O)Cn1nc(-c2ccc(S(N)(=O)=O)cc2)c2ccc(OC)cc2c1=O)c1ccc(OC(F)F)cc1` [Example 73, N-(4-(difluoromethoxy)phenyl)-N-ethyl-2-(7-methoxy-1-oxo-4-(4-sulfamoylphenyl)phthalazin-2(1H)-yl)acetamide], for which the Emax lay in the range of 30 to 80% and the EC50 is less than 10 µM.

Consider `CCc1ccc(N(CC)C(=O)Cn2nc(Cc3cccnc3)c3ccc(C(C)(C)C)cc3c2=O)cc1` [Example 33, 2-(7-(tert-butyl)-1-oxo-4-(pyridin-3-ylmethyl)phthalazin-2(1H)-yl)-N-ethyl-N-(4-ethylphenyl)acetamide], for which the Emax lay in the range of 30 to 80%.

As to `CCN(C(=O)Cn1nc(-c2cccc(C#N)c2)c2ccc(O)cc2c1=O)c1ccc2c(c1)OC(F)(F)O2` [Example 103, 2-(4-(3-cyanophenyl)-7-hydroxy-1-oxophthalazin-2(1H)-yl)-N-(2,2-difluorobenzo[d][1,3]dioxol-5-yl)-N-ethylacetamide], the Emax is more than 80% and the EC50 is less than 10 µM.

Consider `CCN(C(=O)c1nn(C2CCOCC2)c(=O)c2c1c1ccccc1n2C)c1ccccc1` [Example 185, N-ethyl-5-methyl-4-oxo-N-phenyl-3-(tetrahydro-2H-pyran-4-yl)-4,5-dihydro-3H-pyridazino[4,5-b]indole-1-carboxamide], for which the Emax fell in the range of 30 to 80% and the EC50 was less than 10 µM.

`Cc1ccc(-n2nc(-c3ccccc3)c3c4ccccc4n(C)c3c2=O)cc1` [Example 236, 5-methyl-1-phenyl-3-(p-tolyl)-3H-pyridazino[4,5-b]indol-4(5H)-one]: the Emax fell in the range of 10 to 30% and the EC50 is more than 20 µM.

For `COc1ccc2c(-c3cccc(C#N)c3)nn(CC(=O)N(c3ccc4c(c3)OC(F)(F)O4)C(C)C)c(=O)c2c1` [Example 77, 2-(4-(3-cyanophenyl)-7-methoxy-1-oxophthalazin-2(1H)-yl)-N-(2,2-difluorobenzo[d][1,3]dioxol-5-yl)-N-isopropylacetamide], the Emax was more than 80% and the EC50 lay within 10 to 20 µM.

As to `CCc1ccc(N(CC)C(=O)Cn2nc(-c3ccncc3)c3ccccc3c2=O)cc1` [Example 4, N-ethyl-N-(4-ethylphenyl)-2-(1-oxo-4-(pyridin-4-yl)phthalazin-2(1H)-yl)acetamide], the Emax fell in the range of 30 to 80%.

For `CCN(C(=O)c1nn(-c2ccccc2)c(=O)c2c1c1ccccc1n2C)c1cccc(F)c1` [Example 175, N-ethyl-N-(3-fluorophenyl)-5-methyl-4-oxo-3-phenyl-4,5-dihydro-3H-pyridazino[4,5-b]indole-1-carboxamide], the Emax fell in the range of 30 to 80% and the EC50 is more than 20 µM.

Take `CCN(C(=O)c1nn(-c2ccc(C)cc2)c(=O)c2c1c1ccccc1n2C)c1ccc2c(c1)OC(F)(F)O2` [Example 182, N-(2,2-difluorobenzo[d][1, 3]dioxol-5-yl)-N-ethyl-5-methyl-4-oxo-3-(p-tolyl)-4,5-dihydro-3H-pyridazino[4,5-b]indole-1-carboxamide]: the Emax was 30 to 80%.

Regarding `CCN(C(=O)c1nn(-c2ccc(C)cc2)c(=O)c2c1c1ccccc1n2C)C1CC1` [Example 160, N-cyclopropyl-N-ethyl-5-methyl-4-oxo-3-(p-tolyl)-4,5-dihydro-3H-pyridazino[4,5-b]indole-1-carboxamide], the Emax fell in the range of 30 to 80%.

Turning to `Cc1nc2ccc(N(C(=O)Cn3nc(-c4cccc(F)c4)c4ccc(O)cc4c3=O)C3CC3)cc2o1` [Example 99, N-cyclopropyl-2-(4-(3-fluorophenyl)-7-hydroxy-1-oxophthalazin-2(1H)-yl)-N-(2-methylbenzo[d]oxazol-6-yl)acetamide], the Emax is more than 80%.

Take `CCN(C(=O)c1nn(-c2nccs2)c(=O)c2c1c1ccccc1n2C)c1ccccc1` [Example 170, N-ethyl-5-methyl-4-oxo-N-phenyl-3-(thiazol-2-yl)-4,5-dihydro-3H-pyridazino[4,5-b]indole-1-carboxamide]: the Emax lay within 30 to 80%.
